Assay: molar heat capacity at constant pressure
Conditions: 101.33 kPa, Crystal 1

O=P([O-])([O-])[O-].[Fe+2].[Li+] [iron(II) lithium phosphate]
Conditions	molar heat capacity at constant pressure [J/K/mol]
290 K, combination of DSC and relaxation calorimetry	120.5
292.55 K, relaxation calorimetry	120.06
293.2 K, Large sample (1 g) DSC	120.85
294.8 K, Small sample (50 mg) DSC	122.5
298.15 K, combination of DSC and relaxation calorimetry	122.1
300 K, combination of DSC and relaxation calorimetry	122.4
302.7 K, relaxation calorimetry	120.5
304.6 K, Small sample (50 mg) DSC	126.1
313.2 K, Large sample (1 g) DSC	125.4
314.5 K, Small sample (50 mg) DSC	128.2
320 K, combination of DSC and relaxation calorimetry	129
324.4 K, Small sample (50 mg) DSC	129.7
333.2 K, Large sample (1 g) DSC	128
334.4 K, Small sample (50 mg) DSC	132.2
340 K, combination of DSC and relaxation calorimetry	133.4
344.3 K, Small sample (50 mg) DSC	134.8
353.2 K, Large sample (1 g) DSC	130.1
354.2 K, Small sample (50 mg) DSC	136.3
360 K, combination of DSC and relaxation calorimetry	137.6
364.1 K, Small sample (50 mg) DSC	137.9
374 K, Small sample (50 mg) DSC	140.2
380 K, combination of DSC and relaxation calorimetry	141.6
383.9 K, Small sample (50 mg) DSC	142.9
393.8 K, Small sample (50 mg) DSC	145.5
400 K, combination of DSC and relaxation calorimetry	145.3
403.8 K, Small sample (50 mg) DSC	147
413.7 K, Small sample (50 mg) DSC	148.9
420 K, combination of DSC and relaxation calorimetry	148.7
423.6 K, Small sample (50 mg) DSC	150.3
433.5 K, Small sample (50 mg) DSC	151.6
440 K, combination of DSC and relaxation calorimetry	151.9
443.4 K, Small sample (50 mg) DSC	152.8
453.3 K, Small sample (50 mg) DSC	154
460 K, combination of DSC and relaxation calorimetry	154.9
463.3 K, Small sample (50 mg) DSC	155
473.2 K, Small sample (50 mg) DSC	156.3
480 K, combination of DSC and relaxation calorimetry	157.7
483.1 K, Small sample (50 mg) DSC	157.5
493 K, Small sample (50 mg) DSC	159
500 K, combination of DSC and relaxation calorimetry	160.3
502.9 K, Small sample (50 mg) DSC	160
512.8 K, Small sample (50 mg) DSC	161
520 K, combination of DSC and relaxation calorimetry	162.7
522.7 K, Small sample (50 mg) DSC	162.2
532.6 K, Small sample (50 mg) DSC	163.4
540 K, combination of DSC and relaxation calorimetry	164.9
542.5 K, Small sample (50 mg) DSC	165
552.4 K, Small sample (50 mg) DSC	166.2
560 K, combination of DSC and relaxation calorimetry	167
562.3 K, Small sample (50 mg) DSC	167.1
572.3 K, Small sample (50 mg) DSC	168.3
580 K, combination of DSC and relaxation calorimetry	169
582.2 K, Small sample (50 mg) DSC	169.6
592.1 K, Small sample (50 mg) DSC	170.4
600 K, combination of DSC and relaxation calorimetry	170.9
602 K, Small sample (50 mg) DSC	171.1
611.9 K, Small sample (50 mg) DSC	173
620 K, combination of DSC and relaxation calorimetry	172.8
621.8 K, Small sample (50 mg) DSC	173.6
631.7 K, Small sample (50 mg) DSC	174.2
640 K, combination of DSC and relaxation calorimetry	174.5
641.6 K, Small sample (50 mg) DSC	174.9
651.6 K, Small sample (50 mg) DSC	175.7
660 K, combination of DSC and relaxation calorimetry	176.3
661.5 K, Small sample (50 mg) DSC	176.8
671.8 K, Small sample (50 mg) DSC	177.4
680 K, combination of DSC and relaxation calorimetry	178.1
681.3 K, Small sample (50 mg) DSC	178
691.3 K, Small sample (50 mg) DSC	178.7
700 K, combination of DSC and relaxation calorimetry	179.8
701.2 K, Small sample (50 mg) DSC	179.4
711.1 K, Small sample (50 mg) DSC	180.6
720 K, combination of DSC and relaxation calorimetry	181.6
721 K, Small sample (50 mg) DSC	181.6
730.9 K, Small sample (50 mg) DSC	182.4
740 K, combination of DSC and relaxation calorimetry	183.5
740.8 K, Small sample (50 mg) DSC	183.5
750.8 K, Small sample (50 mg) DSC	184.5
760 K, combination of DSC and relaxation calorimetry	185.5
760.7 K, Small sample (50 mg) DSC	185.7
770.6 K, Small sample (50 mg) DSC	186.9

Source: the NIST ThermoML archive (doi:10.1016/j.jct.2015.01.007)
